Laboratory results published in ChEMBL document CHEMBL5365523, “Design of a structure-activity relationship model of vitamin K epoxide reductase (VKORC1) inhibitors combining chemical synthesis of new compounds, enzymatic assays and molecular modelling” (Bioorg Med Chem, 2023).

target: Vitamin K epoxide reductase complex subunit 1 (Homo sapiens, UniProt Q9BQB6); test: Inhibition of recombinant human wild-type VKORC1 expressed in Pichia pastoris membrane incubated for 30 mins in presence of presence of dithiothreitol by LC-APCI/MS/MS analysis; format: cell membranes
Sequence (Q9BQB6 whole entry, one chain of several): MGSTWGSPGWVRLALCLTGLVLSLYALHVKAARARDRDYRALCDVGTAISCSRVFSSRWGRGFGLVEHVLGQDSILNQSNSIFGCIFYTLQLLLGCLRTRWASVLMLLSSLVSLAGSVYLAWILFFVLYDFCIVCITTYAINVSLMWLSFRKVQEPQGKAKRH

IC50 [µM]	Structure (SMILES)
5.53	COc1cccc(Cc2c(O)c3ccccc3oc2=O)c1
23.9	O=c1oc2ccccc2c(O)c1Cc1cccnc1
0.643	O=c1oc2ccccc2c(O)c1Cc1ccc(Br)cc1
0.527	CSc1ccc(Cc2c(O)c3ccccc3oc2=O)cc1
2.72	COc1ccc(Cc2c(O)c3ccccc3oc2=O)cc1
0.498	O=c1oc2ccccc2c(O)c1Cc1ccc(C(F)(F)F)cc1

More lines, now with the values behind:

Structure (SMILES)	IC50 [µM]
O=c1oc2ccccc2c(O)c1Cc1ccc2c(c1)OCO2	0.873
CC(c1ccccc1)c1c(O)c2ccccc2oc1=O (stereo not given)	1.53
CC(C)=CCC/C(C)=C\CC/C(C)=C\Cc1c(O)c2ccccc2oc1=O	0.098
O=c1oc2ccccc2c(O)c1C1CC(c2ccc(-c3ccc(Br)cc3)cc2)Cc2ccccc21 (stereo not given) [BRODIFACOUM]	0.15
CC(C)=CCc1c(O)c2ccccc2oc1=O [ISOPRENYLCOUMARIN]	79
CC(O)CC(c1ccccc1)c1c(O)c2ccccc2oc1=O (stereo not given) [WARFARIN ALCOHOL]	12.5

test system: not listed separately; test: Metabolic stability in rat hepatocytes assessed as half life; format: ADME, cell-based, Hepatocyte

Structure (SMILES)	half-life [days]
O=c1oc2ccccc2c(O)c1C1CC(c2ccc(OCc3ccc(C(F)(F)F)cc3)cc2)Cc2ccccc21 (stereo not given)	215
O=c1oc2ccccc2c(O)c1C1CC(c2ccc(-c3ccccc3)cc2)Cc2ccccc21 (stereo not given)	118
O=c1oc2ccccc2c(O)c1C(CC(O)c1ccc(-c2ccc(Br)cc2)cc1)c1ccccc1 (stereo not given) [BROMODIOLONE]	170
